According to patent publication US20260209177A1, “1-DEOXYNOJIRIMYCIN DERIVATIVE AND USE THEREOF” (ZHEJIANG UNIVERSITY, priority 2022, published 2026):

Assays:
[1] = test system: C57BL/6J mice with Ang II-induced myocardial hypertrophy; assay: Transmission electron microscopy of mitochondria in mouse heart tissue; assay type: in vivo; conditions: 10 mg/kg/d intraperitoneal, 4 weeks, TEM, FIG. 24
Description: (§1) Model construction was performed by adopting C57BL/6J wild-type mice with subcutaneous implantation and perfusion of angiotensin II (AngII)/normal saline (Saline) through an Alzet Osmotic Pump 2004. Relevant statistical results were obtained after continuous feeding, modeling and administration for 4 weeks.
(§2) Administration method: Intraperitoneal injection was adopted at a drug dose of 10 mg/kg/d, drugs were dissolved in a phosphate buffer solution (PBS) and administered twice a day in the morning and the evening, and a placebo group was given a phosphate buffer solution (PBS) of a same volume.
After mice were sacrificed, a small portion of left ventricular tissues were taken, and cardiac muscles were trimmed to achieve cubes with a size of 1 mm^3. According to arrangement directions of mitochondria in the cardiac muscle tissues, tissues were selected respectively along long axes and short axes of hearts, and samples for transmission electron microscopy were prepared subsequently. […]

[2] = test system: C57BL/6J mice with Ang II-induced myocardial hypertrophy; assay: Heart weight/body weight of Ang II mice; assay type: in vivo, mouse; conditions: 10 mg/kg/d intraperitoneal, 4 weeks, FIG. 23
Description: as §1, §2
After continuous feeding, modeling and administration for 4 weeks, indicators, such as body weight, of mice were measured before sampling, then the mice were deeply anesthetized with isoflurane, and the mice were sacrificed after completely losing the sense of pain. Hearts were obtained after the mice were sacrificed, and indicators, such as heart weight, were measured.
In histological analysis, the hearts of the mice were collected, cut along maximum cross sections, and fixed with 4% paraformaldehyde. Subsequently, paraffin embedding, sectioning and hematoxylin-eosin (HE) staining of the maximum cross sections were performed. […] The sections were scanned by a scanner (3DHISTECH), and obtained and measured through software slideviewer.

[3] = test system: C57BL/6J mice with Ang II-induced myocardial hypertrophy; assay: Cardiac ultrasonography of mice with Ang II-induced myocardial hypertrophy; assay type: in vivo, mouse; conditions: 10 mg/kg/d intraperitoneal, 4 weeks, FIG. 22
Description: as §1
Model construction: Weighing and anesthetization were performed, and skin preparation and disinfection were performed in surgical areas. A 1 cm incision above a scapula of a front leg was made by using surgical scissors, wherein the incision was perpendicular to a tail part. The skin was cut carefully without damaging underlying tissues, a subcutaneous tunnel was made under the skin by using hemostatic forceps, the pump with a regulator head was completely pushed into a pocket (pointing toward a tail end of each mouse), and the incision was sutured. […]
In the experiment, a Vinno 6LAB high-resolution ultrasonic detector for small animals was used for detection in a two-dimensional (2D) parasternal short-axis M mode. […] Each indicator was detected for 3-6 cardiac cycles, and a mean value of the measured cardiac cycles was calculated.

Compound: CC(C)(C)C(=O)OC[C@H]1NC[C@H](O)[C@@H](O)[C@@H]1O [DNJ-5a, ((2R,3R,4R,5S)-3,4,5-trihydroxypiperidin-2-yl)methyl pivalate]
- mitochondrial ultrastructure of heart tissue (crista, vacuolation proportion) [1]: more significantly improve the ultrastructure of the mitochondrial crista and decrease a vacuolation proportion
- heart weight/body weight [2]: better performance
- cardiac ultrasonography parameters (EF, FS, LVPWd, LVPWs) [3]: better performance
